Data as given in paper PMC5053573, “Structure-Based Design of Tetrahydroisoquinoline-7-carboxamides as Selective Discoidin Domain Receptor 1 (DDR1) Inhibitors” (Journal of Medicinal Chemistry, 2016).

Assays:
Test in all cases: biochemical
Conditions in all cases: read-out: %Ctrl @ 1000nM
FLT3(D835H) = FLT3(D835H) (Homo sapiens, UniProt P36888, D835H)
PAK1 = PAK1 (Homo sapiens, UniProt Q13153)
PKAC-alpha = target: T1, PKAC-alpha (Homo sapiens, UniProt P17612)
T1 construct: gene PRKACA

MEK6 = target: T2, MEK6 (Homo sapiens, UniProt P52564)
T2 construct: gene MAP2K6

MARK3 = MARK3 (Homo sapiens, UniProt P27448)
DCAMKL3 = target: T3, DCAMKL3 (Homo sapiens, UniProt Q9C098)
T3 construct: gene DCLK3

RIPK2 = RIPK2 (Homo sapiens, UniProt O43353)
DAPK1 = DAPK1 (Homo sapiens, UniProt P53355)
MERTK = MERTK (Homo sapiens, UniProt Q12866)
RET(V804M) = RET(V804M) (Homo sapiens, UniProt P07949, V804M)
MET(Y1235D) = MET(Y1235D) (Homo sapiens, UniProt P08581, Y1235D)
PDGFRB = PDGFRB (Homo sapiens, UniProt P09619)
KIT(V559D) = KIT(V559D) (Homo sapiens, UniProt P10721, V559D)
PRKCI = PRKCI (Homo sapiens, UniProt P41743)
ACVRL1 = ACVRL1 (Homo sapiens, UniProt P37023)
CSF1R-autoinhibited = CSF1R-autoinhibited (Homo sapiens, UniProt P07333)
[1] = target: T4, RSK2(Kin.Dom.1-N-terminal) (Homo sapiens, UniProt P51812)
T4 construct: gene RPS6KA3

[2] = target: ABL1(Y253F)-phosphorylated (Homo sapiens, UniProt P00519, Y253F)
[3] = target: ABL1(T315I)-nonphosphorylated (Homo sapiens, UniProt P00519, T315I)
LOK = target: T5, LOK (Homo sapiens, UniProt O94804)
T5 construct: gene STK10

TAOK1 = TAOK1 (Homo sapiens, UniProt Q7L7X3)
STK39 = STK39 (Homo sapiens, UniProt Q9UEW8)
CSNK1G3 = CSNK1G3 (Homo sapiens, UniProt Q9Y6M4)
INSRR = INSRR (Homo sapiens, UniProt P14616)
DAPK2 = DAPK2 (Homo sapiens, UniProt Q9UIK4)
DLK = target: T6, DLK (Homo sapiens, UniProt Q12852)
T6 construct: gene MAP3K12

QSK = target: T7, QSK (Homo sapiens, UniProt Q9Y2K2)
T7 construct: gene SIK3

AAK1 = AAK1 (Homo sapiens, UniProt Q2M2I8)
EPHA3 = EPHA3 (Homo sapiens, UniProt P29320)
MEK1 = target: T8, MEK1 (Homo sapiens, UniProt Q02750)
T8 construct: gene MAP2K1

CLK4 = CLK4 (Homo sapiens, UniProt Q9HAZ1)
DRAK2 = target: T9, DRAK2 (Homo sapiens, UniProt O94768)
T9 construct: gene STK17B

MST1R = MST1R (Homo sapiens, UniProt Q04912)
DYRK2 = DYRK2 (Homo sapiens, UniProt Q92630)
BRSK2 = BRSK2 (Homo sapiens, UniProt Q8IWQ3)
Sequence of BRSK2 (Q8IWQ3 whole entry): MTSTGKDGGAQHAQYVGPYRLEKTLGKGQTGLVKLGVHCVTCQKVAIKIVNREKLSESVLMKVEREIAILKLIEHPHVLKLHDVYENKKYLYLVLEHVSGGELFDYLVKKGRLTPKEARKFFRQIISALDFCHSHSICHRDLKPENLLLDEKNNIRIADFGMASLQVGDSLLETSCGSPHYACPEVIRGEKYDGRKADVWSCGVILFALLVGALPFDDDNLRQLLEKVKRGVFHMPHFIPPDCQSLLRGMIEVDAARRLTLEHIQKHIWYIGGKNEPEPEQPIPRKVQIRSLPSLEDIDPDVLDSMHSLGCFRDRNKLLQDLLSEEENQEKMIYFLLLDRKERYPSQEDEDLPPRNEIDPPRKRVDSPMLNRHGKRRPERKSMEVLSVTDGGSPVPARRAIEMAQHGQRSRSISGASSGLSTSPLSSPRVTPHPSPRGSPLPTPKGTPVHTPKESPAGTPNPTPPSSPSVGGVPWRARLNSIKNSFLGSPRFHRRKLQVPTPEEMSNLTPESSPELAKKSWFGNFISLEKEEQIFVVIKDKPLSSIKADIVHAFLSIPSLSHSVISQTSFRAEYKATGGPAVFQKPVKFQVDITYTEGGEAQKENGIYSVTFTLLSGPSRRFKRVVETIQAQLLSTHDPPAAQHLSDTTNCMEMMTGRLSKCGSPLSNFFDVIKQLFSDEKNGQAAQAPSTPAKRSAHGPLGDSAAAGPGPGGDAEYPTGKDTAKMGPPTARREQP

Sequence of CLK4 (Q9HAZ1 whole entry): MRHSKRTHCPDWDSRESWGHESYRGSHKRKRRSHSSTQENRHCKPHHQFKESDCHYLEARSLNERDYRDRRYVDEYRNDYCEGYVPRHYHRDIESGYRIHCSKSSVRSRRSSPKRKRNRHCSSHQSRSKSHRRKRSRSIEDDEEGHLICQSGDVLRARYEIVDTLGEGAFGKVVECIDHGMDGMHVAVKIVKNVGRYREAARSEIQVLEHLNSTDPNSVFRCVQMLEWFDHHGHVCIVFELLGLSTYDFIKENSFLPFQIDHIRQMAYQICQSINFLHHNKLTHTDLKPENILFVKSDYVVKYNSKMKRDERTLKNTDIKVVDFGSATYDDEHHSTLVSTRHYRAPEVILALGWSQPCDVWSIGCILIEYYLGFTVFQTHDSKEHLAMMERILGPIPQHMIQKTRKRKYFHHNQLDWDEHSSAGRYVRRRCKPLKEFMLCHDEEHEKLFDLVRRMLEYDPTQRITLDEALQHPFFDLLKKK
Sequence of CSNK1G3 (Q9Y6M4 whole entry): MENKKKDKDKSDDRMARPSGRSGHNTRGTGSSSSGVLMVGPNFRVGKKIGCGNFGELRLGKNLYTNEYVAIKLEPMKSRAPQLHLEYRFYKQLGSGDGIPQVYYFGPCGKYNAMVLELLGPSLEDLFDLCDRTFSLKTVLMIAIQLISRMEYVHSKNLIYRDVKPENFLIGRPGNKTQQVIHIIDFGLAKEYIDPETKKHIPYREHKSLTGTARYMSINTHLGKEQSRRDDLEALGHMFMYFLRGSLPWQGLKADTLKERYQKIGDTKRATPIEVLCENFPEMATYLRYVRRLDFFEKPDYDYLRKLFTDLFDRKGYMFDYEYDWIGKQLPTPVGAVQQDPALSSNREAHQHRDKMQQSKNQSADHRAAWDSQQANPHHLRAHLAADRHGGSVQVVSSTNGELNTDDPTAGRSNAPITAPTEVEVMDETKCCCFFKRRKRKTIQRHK
Sequence of MST1R (Q04912 whole entry): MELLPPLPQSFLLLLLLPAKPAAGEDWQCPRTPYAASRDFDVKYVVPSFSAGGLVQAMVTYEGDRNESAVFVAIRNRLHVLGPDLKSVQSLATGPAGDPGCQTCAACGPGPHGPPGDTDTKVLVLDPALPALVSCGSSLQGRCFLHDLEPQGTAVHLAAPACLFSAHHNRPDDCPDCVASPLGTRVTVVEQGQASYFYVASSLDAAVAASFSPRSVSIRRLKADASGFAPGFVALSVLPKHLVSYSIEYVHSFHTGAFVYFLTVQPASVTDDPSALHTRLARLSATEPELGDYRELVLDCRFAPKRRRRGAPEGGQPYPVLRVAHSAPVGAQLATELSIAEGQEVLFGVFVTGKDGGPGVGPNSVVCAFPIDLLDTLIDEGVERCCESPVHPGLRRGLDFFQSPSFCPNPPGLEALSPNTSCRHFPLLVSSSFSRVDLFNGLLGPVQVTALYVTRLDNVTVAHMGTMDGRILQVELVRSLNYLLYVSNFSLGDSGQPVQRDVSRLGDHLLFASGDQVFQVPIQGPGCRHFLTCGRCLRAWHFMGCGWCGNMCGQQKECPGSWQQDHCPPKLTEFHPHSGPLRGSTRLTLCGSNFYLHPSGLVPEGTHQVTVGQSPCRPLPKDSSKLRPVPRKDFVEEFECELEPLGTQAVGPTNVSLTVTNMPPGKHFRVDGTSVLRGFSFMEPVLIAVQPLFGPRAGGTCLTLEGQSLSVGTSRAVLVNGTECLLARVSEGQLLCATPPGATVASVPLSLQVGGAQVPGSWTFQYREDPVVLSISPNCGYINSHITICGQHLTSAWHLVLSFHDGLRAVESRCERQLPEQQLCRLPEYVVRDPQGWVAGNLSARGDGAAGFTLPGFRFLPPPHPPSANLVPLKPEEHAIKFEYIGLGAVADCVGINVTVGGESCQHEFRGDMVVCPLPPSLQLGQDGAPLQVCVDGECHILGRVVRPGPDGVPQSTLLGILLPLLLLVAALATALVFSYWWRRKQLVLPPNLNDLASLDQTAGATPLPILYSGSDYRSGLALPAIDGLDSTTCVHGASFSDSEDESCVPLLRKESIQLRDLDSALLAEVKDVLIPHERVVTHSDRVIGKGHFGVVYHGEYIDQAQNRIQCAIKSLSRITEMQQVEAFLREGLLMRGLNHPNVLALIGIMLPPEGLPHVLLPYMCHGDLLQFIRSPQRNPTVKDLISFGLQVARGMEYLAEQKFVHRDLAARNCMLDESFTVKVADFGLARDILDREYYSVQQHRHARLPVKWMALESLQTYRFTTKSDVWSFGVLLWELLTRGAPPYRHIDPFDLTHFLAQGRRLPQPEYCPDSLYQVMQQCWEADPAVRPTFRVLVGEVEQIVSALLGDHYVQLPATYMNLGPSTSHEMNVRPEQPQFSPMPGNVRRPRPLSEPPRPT
T9 sequence (O94768 whole entry): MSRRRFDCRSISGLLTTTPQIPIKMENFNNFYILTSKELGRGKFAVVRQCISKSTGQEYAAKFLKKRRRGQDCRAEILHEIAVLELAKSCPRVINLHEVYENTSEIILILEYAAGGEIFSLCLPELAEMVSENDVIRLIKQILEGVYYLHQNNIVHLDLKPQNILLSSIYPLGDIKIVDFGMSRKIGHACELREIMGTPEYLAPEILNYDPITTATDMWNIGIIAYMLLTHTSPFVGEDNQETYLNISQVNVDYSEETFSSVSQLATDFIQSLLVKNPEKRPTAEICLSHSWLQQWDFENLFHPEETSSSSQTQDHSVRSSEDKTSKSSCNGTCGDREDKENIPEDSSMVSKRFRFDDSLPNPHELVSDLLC
Sequence of PAK1 (Q13153 whole entry): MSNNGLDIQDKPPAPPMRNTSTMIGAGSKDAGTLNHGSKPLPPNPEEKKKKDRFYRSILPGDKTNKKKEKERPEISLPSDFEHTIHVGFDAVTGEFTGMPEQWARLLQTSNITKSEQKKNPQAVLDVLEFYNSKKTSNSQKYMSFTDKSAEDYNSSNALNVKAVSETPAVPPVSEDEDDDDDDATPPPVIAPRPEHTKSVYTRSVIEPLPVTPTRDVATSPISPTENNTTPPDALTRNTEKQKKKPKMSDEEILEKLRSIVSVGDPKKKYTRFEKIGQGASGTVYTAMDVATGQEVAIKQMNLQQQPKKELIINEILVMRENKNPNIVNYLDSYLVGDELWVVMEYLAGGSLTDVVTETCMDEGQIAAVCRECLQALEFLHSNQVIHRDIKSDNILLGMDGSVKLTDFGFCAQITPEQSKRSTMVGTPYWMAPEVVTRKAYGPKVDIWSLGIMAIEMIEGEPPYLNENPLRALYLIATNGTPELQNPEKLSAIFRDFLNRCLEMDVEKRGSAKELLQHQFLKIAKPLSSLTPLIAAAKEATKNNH
T2 sequence (P52564 whole entry): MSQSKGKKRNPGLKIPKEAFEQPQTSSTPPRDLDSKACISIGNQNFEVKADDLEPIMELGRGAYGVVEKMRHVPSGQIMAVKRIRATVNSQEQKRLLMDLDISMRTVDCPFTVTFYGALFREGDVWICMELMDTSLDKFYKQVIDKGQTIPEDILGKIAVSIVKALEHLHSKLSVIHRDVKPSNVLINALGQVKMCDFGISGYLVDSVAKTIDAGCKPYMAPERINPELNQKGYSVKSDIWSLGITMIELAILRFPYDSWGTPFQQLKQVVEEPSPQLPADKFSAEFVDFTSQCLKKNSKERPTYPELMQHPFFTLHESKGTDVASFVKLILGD
Sequence of DAPK2 (Q9UIK4 whole entry): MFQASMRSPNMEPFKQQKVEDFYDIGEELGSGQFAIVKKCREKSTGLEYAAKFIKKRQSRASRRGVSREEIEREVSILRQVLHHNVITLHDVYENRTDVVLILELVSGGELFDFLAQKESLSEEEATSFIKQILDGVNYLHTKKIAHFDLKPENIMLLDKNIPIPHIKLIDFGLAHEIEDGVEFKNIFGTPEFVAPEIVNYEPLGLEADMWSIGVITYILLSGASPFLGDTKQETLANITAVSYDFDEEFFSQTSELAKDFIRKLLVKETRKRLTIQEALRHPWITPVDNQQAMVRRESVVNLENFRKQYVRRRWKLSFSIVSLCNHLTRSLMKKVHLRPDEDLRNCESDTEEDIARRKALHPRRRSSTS

Cc1cn(-c2cc(NC(=O)c3ccc4c(c3)CN(c3cncnc3)C[C@@H]4C)cc(C(F)(F)F)c2)cn1 [Compound 6j]
remaining activity at 1 µM (FLT3(D835H)): 59%
remaining activity at 1 µM (PAK1): 84%
remaining activity at 1 µM (PKAC-alpha): 87%
remaining activity at 1 µM (MEK6): 98%
remaining activity at 1 µM (MARK3): 94%
remaining activity at 1 µM (DCAMKL3): 86%
remaining activity at 1 µM (RIPK2): 80%
remaining activity at 1 µM (DAPK1): 100%
remaining activity at 1 µM (MERTK): 61%
remaining activity at 1 µM (RET(V804M)): 100%
remaining activity at 1 µM (MET(Y1235D)): 68%
remaining activity at 1 µM (PDGFRB): 82%
remaining activity at 1 µM (KIT(V559D)): 80%
remaining activity at 1 µM (PRKCI): 72%
remaining activity at 1 µM (ACVRL1): 76%
remaining activity at 1 µM (CSF1R-autoinhibited): 93%
remaining activity at 1 µM [1]: 100%
remaining activity at 1 µM [2]: 98%
remaining activity at 1 µM [3]: 100%
remaining activity at 1 µM (LOK): 72%
remaining activity at 1 µM (TAOK1): 100%
remaining activity at 1 µM (STK39): 100%
remaining activity at 1 µM (CSNK1G3): 72%
remaining activity at 1 µM (INSRR): 100%
remaining activity at 1 µM (DAPK2): 94%
remaining activity at 1 µM (DLK): 100%
remaining activity at 1 µM (QSK): 94%
remaining activity at 1 µM (AAK1): 77%
remaining activity at 1 µM (EPHA3): 55%
remaining activity at 1 µM (MEK1): 94%
remaining activity at 1 µM (CLK4): 96%
remaining activity at 1 µM (DRAK2): 97%
remaining activity at 1 µM (MST1R): 97%
remaining activity at 1 µM (DYRK2): 100%
remaining activity at 1 µM (BRSK2): 94%
